Results reported in patent US10844077B2, “Thiazolyl-containing compounds for treating proliferative diseases” (Dana-Farber Cancer Institute, Inc., priority 2014, dated 2020).
“And” between values parts separate entries of the source, which are not always exact repeats. Identical values can stand only once.

Columns and labels:
Assay in all cases: KINATIV assay of compounds I-3 and I-9, lysate directly labeled with ATP-biotin probe (no GF)
Format in all cases: cell-based
kinases in BCWM.1 cells [1] = biological target: kinases in BCWM.1 cells (Homo sapiens, UniProt Q13572); conditions: ITPK1; ATP; 1 μM; no GF
Experimental: (§1) The cells were harvested and lysed. […] Bound kinases were identified and quantitated by ACTIVX as described in Patricelli et al., Biochemistry, 2007, 46(2): 350-358. The compounds were tested in duplicates against duplicate or quadruplicate control samples.

kinases in BCWM.1 cells [2] = biological target: kinases in BCWM.1 cells (Homo sapiens, UniProt P51451); conditions: BLK; Activation Loop; 1 μM; no GF
Sequence of kinases in BCWM.1 cells (Homo sapiens, UniProt P51451) (P51451 2-505 limits assumed): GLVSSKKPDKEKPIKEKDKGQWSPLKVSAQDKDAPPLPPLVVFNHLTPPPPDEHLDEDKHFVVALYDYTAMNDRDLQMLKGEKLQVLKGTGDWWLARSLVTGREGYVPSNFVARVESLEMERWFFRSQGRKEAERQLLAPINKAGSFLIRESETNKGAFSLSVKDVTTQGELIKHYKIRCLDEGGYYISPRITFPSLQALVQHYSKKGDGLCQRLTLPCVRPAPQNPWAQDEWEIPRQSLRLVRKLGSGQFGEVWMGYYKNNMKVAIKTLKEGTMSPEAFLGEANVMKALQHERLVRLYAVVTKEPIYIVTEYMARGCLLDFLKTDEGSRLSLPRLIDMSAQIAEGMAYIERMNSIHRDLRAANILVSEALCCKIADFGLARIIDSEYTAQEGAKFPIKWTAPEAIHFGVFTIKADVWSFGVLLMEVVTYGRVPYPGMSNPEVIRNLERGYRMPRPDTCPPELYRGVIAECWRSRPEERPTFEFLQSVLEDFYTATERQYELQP
Experimental: as §1

kinases in BCWM.1 cells [3] = biological target: kinases in BCWM.1 cells (Homo sapiens, UniProt P29323); conditions: EphB2; Activation Loop; 1 μM; no GF
Sequence of kinases in BCWM.1 cells (Homo sapiens, UniProt P29323) (P29323 19-1055 limits assumed): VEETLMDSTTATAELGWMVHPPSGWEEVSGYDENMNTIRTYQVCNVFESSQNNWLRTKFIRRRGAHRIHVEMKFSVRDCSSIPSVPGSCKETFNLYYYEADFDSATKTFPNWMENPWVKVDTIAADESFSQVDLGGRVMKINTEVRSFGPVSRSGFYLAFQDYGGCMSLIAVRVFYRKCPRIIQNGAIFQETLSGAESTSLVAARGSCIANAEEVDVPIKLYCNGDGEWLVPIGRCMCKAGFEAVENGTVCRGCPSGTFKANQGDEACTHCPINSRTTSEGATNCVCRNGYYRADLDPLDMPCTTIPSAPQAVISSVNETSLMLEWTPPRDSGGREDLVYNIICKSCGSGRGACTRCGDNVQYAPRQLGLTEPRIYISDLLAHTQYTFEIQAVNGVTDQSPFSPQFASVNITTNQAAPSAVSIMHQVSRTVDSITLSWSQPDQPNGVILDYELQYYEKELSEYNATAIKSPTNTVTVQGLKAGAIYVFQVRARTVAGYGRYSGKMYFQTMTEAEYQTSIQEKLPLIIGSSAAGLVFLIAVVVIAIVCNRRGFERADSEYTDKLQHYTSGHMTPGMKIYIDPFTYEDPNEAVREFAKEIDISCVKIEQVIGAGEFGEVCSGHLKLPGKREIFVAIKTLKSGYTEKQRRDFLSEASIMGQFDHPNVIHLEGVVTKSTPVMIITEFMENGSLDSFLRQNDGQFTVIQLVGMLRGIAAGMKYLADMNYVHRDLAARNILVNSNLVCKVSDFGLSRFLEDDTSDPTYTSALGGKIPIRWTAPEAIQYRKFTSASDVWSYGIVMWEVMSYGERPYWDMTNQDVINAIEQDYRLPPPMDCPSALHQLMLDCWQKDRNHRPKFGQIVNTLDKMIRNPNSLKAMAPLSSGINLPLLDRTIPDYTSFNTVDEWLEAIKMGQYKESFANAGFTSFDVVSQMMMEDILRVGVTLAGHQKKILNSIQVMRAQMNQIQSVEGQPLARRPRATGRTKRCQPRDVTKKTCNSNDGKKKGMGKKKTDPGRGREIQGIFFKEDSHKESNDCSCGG
Experimental: as §1

kinases in BCWM.1 cells [4] = biological target: kinases in BCWM.1 cells (Homo sapiens, UniProt P11802); conditions: CDK4; Lys2; 1 μM; no GF
Sequence of kinases in BCWM.1 cells (Homo sapiens, UniProt P11802) (P11802 2-303 limits assumed): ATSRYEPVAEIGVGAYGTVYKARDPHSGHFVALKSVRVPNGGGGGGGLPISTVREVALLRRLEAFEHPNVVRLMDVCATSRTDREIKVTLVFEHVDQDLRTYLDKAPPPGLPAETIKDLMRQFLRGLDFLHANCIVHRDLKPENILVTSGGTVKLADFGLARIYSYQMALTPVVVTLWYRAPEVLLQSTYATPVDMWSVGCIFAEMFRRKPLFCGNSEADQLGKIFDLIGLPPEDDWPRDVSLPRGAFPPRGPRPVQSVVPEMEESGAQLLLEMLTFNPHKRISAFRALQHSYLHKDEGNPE
Experimental: as §1

kinases in BCWM.1 cells [5] = biological target: kinases in BCWM.1 cells (Homo sapiens, UniProt P46734); conditions: MAP2K3; Lys2; 1 μM; no GF
Experimental: as §1

kinases in BCWM.1 cells [6] = biological target: kinases in BCWM.1 cells (Homo sapiens, UniProt P28482); conditions: Erk2; Lys2; 1 μM; no GF
Sequence of kinases in BCWM.1 cells (Homo sapiens, UniProt P28482) (P28482 2-360 limits assumed): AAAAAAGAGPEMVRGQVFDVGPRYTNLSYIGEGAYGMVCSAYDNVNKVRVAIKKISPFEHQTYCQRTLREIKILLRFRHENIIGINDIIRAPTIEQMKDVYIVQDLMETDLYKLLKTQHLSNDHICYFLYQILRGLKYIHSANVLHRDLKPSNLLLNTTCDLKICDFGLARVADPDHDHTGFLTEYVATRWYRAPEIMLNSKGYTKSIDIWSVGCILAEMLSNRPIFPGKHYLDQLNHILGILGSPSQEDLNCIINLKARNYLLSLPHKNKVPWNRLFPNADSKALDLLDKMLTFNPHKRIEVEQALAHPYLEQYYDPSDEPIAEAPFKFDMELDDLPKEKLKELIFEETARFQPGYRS
Experimental: as §1

kinases in BCWM.1 cells [7] = biological target: kinases in BCWM.1 cells (Homo sapiens, UniProt Q13315); conditions: ATM; ATP; 1 μM; no GF
Experimental: as §1

kinases in BCWM.1 cells [8] = biological target: kinases in BCWM.1 cells (Homo sapiens, UniProt P50613); conditions: CDK7; Lys2; 1 μM; no GF
Sequence of kinases in BCWM.1 cells (Homo sapiens, UniProt P50613) (P50613 2-346 limits assumed): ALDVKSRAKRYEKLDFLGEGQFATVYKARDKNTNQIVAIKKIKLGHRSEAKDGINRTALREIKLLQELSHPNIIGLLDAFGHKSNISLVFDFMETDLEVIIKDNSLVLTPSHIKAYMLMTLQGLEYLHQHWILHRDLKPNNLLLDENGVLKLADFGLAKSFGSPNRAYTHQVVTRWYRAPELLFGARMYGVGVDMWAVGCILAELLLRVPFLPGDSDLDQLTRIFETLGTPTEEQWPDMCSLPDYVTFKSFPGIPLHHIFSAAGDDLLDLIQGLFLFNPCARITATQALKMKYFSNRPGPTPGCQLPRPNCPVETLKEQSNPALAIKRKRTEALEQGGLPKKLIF
Experimental: as §1

kinases in BCWM.1 cells [9] = biological target: kinases in BCWM.1 cells (Homo sapiens, UniProt P09769); conditions: FGR; Activation Loop; 1 μM; no GF
Sequence of kinases in BCWM.1 cells (Homo sapiens, UniProt P09769) (P09769 2-529 limits assumed): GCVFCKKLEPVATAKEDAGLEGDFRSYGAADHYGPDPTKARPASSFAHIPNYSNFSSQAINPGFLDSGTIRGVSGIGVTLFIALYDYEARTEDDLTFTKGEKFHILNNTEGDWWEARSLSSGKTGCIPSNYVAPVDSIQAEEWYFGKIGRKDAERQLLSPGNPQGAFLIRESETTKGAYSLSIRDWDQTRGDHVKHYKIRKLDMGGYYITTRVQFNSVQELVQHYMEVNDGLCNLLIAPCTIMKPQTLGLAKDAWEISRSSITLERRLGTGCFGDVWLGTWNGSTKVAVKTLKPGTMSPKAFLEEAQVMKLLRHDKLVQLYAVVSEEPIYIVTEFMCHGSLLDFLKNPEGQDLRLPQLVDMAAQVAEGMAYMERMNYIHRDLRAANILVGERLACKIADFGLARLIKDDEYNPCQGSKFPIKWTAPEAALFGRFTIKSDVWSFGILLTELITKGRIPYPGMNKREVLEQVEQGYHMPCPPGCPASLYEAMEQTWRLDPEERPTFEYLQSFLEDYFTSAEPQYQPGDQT
Experimental: as §1

kinases in BCWM.1 cells [10] = biological target: kinases in BCWM.1 cells (Homo sapiens, UniProt Q99755); conditions: PIP5K1A; ATP; 1 μM, 90 min; no GF
Experimental: as §1

kinases in BCWM.1 cells [11] = biological target: kinases in BCWM.1 cells (Homo sapiens, UniProt O14936); conditions: CASK; Lys1; 1 μM; no GF
Experimental: as §1

kinases in BCWM.1 cells [12] = biological target: kinases in BCWM.1 cells (Homo sapiens, UniProt Q96L34); conditions: MARK4; Lys2; 1 μM; no GF
Experimental: as §1

kinases in BCWM.1 cells [13] = biological target: kinases in BCWM.1 cells (Homo sapiens, UniProt P23458); conditions: JAK1 domain2; Activation Loop; 1 μM; no GF
Experimental: as §1

kinases in BCWM.1 cells [14] = biological target: kinases in BCWM.1 cells (Homo sapiens, UniProt P49841); conditions: GSK3B; Lys2; 1 μM; no GF
Experimental: as §1

kinases in BCWM.1 cells [15] = biological target: kinases in BCWM.1 cells (Homo sapiens, UniProt Q13418); conditions: ILK; Protein Kinase Domain; 1 μM; no GF
Experimental: as §1

kinases in BCWM.1 cells [16] = biological target: kinases in BCWM.1 cells (Homo sapiens, UniProt P54762); conditions: EphB1; Activation Loop; 1 μM; no GF
Sequence of kinases in BCWM.1 cells (Homo sapiens, UniProt P54762) (P54762 18-984 limits assumed): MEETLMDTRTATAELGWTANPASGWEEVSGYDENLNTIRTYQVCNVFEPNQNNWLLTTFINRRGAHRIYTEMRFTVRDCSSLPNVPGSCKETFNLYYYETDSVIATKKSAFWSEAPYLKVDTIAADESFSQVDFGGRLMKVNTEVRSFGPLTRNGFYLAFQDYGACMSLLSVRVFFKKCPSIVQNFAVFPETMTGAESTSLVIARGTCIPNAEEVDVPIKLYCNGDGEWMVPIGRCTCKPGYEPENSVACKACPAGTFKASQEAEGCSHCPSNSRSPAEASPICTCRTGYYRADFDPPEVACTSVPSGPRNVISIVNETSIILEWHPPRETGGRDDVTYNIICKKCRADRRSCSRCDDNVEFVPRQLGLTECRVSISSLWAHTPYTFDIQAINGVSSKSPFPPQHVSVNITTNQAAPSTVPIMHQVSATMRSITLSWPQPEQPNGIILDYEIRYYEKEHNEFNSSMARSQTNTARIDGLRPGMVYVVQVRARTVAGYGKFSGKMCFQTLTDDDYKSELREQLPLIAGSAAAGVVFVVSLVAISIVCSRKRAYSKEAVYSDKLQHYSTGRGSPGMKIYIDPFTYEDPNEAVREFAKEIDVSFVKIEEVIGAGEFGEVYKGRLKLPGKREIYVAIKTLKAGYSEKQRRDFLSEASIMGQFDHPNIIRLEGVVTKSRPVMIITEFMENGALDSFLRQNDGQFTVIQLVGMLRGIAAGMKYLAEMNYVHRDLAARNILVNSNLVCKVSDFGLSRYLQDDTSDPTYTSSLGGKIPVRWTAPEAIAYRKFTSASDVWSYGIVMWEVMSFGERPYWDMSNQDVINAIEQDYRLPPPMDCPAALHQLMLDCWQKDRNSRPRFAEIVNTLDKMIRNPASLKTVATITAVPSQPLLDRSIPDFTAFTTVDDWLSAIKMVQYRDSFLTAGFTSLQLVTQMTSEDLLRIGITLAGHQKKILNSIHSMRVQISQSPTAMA
Experimental: as §1

kinases in BCWM.1 cells [17] = biological target: kinases in BCWM.1 cells (Homo sapiens, UniProt Q9Y6E0); conditions: MST3; Lys2; 1 μM; no GF
Experimental: as §1

kinases in BCWM.1 cells [18] = biological target: kinases in BCWM.1 cells (Homo sapiens, UniProt P31749); conditions: AKT1; ATP Loop; 1 μM; no GF
Experimental: as §1

kinases in BCWM.1 cells [19] = biological target: kinases in BCWM.1 cells (Homo sapiens, UniProt P49840); conditions: GSK3A; Lys2; 1 μM; no GF
Sequence of kinases in BCWM.1 cells (Homo sapiens, UniProt P49840) (P49840 2-483 limits assumed): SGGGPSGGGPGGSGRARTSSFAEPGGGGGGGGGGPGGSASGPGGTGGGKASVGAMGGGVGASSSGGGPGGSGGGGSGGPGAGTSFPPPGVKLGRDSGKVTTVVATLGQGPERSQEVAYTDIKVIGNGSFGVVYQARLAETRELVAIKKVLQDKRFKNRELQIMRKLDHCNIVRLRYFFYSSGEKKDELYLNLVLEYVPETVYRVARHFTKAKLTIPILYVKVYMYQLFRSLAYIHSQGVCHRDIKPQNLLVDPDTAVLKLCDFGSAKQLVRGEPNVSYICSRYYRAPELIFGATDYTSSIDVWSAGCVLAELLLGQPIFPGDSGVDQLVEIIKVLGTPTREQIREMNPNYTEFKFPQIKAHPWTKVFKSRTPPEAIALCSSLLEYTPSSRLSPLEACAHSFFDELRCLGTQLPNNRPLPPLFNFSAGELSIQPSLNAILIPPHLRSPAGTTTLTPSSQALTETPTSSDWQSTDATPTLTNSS
Experimental: as §1

kinases in BCWM.1 cells [20] = biological target: kinases in BCWM.1 cells (Homo sapiens, UniProt P07948); conditions: LYN; Lys1; 1 μM; no GF
Experimental: as §1

kinases in BCWM.1 cells [21] = biological target: kinases in BCWM.1 cells (Homo sapiens, UniProt P52333); conditions: JAK3 domain2; Activation Loop; 1 μM; no GF
Experimental: as §1

kinases in BCWM.1 cells [22] = biological target: kinases in BCWM.1 cells (Homo sapiens, UniProt Q15831); conditions: LKB1; Lys2; 1 μM; no GF
Experimental: as §1

kinases in BCWM.1 cells [23] = biological target: kinases in BCWM.1 cells (Homo sapiens, UniProt O00418); conditions: eEF2K; ATP; 1 μM; no GF
Experimental: as §1

kinases in BCWM.1 cells [24] = biological target: kinases in BCWM.1 cells (Homo sapiens, UniProt Q9Y616); conditions: IRAK3; Lys1; 1 μM; no GF
Experimental: as §1

kinases in BCWM.1 cells [25] = biological target: kinases in BCWM.1 cells (Homo sapiens, UniProt P27361); conditions: Erk1; Lys2; 1 μM; no GF
Sequence of kinases in BCWM.1 cells (Homo sapiens, UniProt P27361) (P27361 2-379 limits assumed): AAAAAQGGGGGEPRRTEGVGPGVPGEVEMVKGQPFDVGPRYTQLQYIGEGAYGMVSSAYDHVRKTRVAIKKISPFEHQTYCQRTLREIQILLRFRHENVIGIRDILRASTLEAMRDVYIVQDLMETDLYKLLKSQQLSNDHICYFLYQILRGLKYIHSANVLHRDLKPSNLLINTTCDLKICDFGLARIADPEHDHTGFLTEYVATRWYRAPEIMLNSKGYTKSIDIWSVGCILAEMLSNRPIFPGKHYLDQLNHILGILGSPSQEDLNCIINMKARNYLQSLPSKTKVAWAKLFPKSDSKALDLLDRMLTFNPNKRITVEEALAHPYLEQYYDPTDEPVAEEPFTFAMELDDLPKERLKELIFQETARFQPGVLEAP
Experimental: as §1

kinases in BCWM.1 cells [26] = biological target: kinases in BCWM.1 cells (Homo sapiens, UniProt Q86UX6); conditions: YANK3; Lys2; 1 μM, 90 min; no GF
Experimental: as §1

kinases in BCWM.1 cells [27] = biological target: kinases in BCWM.1 cells (Homo sapiens, UniProt P17612); conditions: PKACa; Lys2; 1 μM, 90 min; no GF
Experimental: as §1

kinases in BCWM.1 cells [28] = biological target: kinases in BCWM.1 cells (Homo sapiens, UniProt Q9C0K7); conditions: STLK6; Lys1; 1 μM, 90 min; no GF
Experimental: as §1

kinases in BCWM.1 cells [29] = biological target: kinases in BCWM.1 cells (Homo sapiens, UniProt Q9UK32); conditions: RSK4 domain1; Lys2; 1 μM, 90 min; no GF
Experimental: as §1

For `C=CC(=O)N1CC[C@H](Nc2nccc(Nc3ncc(C(=O)Nc4c(C)cccc4C)s3)n2)C1` [Example I-3], which “% change of MS signal compared to control sample” value (from here on “% change of MS signal”) (kinases in BCWM.1 cells [1]) is on record?
The value was 8.5% and 1.5%.

What about the “% change of MS signal” value (kinases in BCWM.1 cells [2]) of the same molecule?
The value was greater than 96%.

And the “% change of MS signal” value (kinases in BCWM.1 cells [3])?
Its value is 91% and 91.6%.

What about the “% change of MS signal” value (kinases in BCWM.1 cells [4]) of the same molecule?
Its value is 10.3% and 4.8%.

And the “% change of MS signal” value (kinases in BCWM.1 cells [5])?
Its value is 15.6% and 5.8%.

And the “% change of MS signal” value (kinases in BCWM.1 cells [6])?
Its value is −1.8% and 1.1%.

What about the “% change of MS signal” value (kinases in BCWM.1 cells [7]) of the same molecule?
Its value is 20.7% and 19.5%.

What about the “% change of MS signal” value (kinases in BCWM.1 cells [8]) of the same molecule?
The value was 8.9% and 5.1%.

What about the “% change of MS signal” value (kinases in BCWM.1 cells [9]) of the same molecule?
The value was 95.7% and 95.4%.

And the “% change of MS signal” value (kinases in BCWM.1 cells [10])?
The value was 26.2%.

What about the “% change of MS signal” value (kinases in BCWM.1 cells [11]) of the same molecule?
Its value is −1% and 0.5%.

What about the “% change of MS signal” value (kinases in BCWM.1 cells [12]) of the same molecule?
The value was −8.5% and −8.7%.

What about the “% change of MS signal” value (kinases in BCWM.1 cells [13]) of the same molecule?
Its value is −2.9% and −1.6%.

What about the “% change of MS signal” value (kinases in BCWM.1 cells [14]) of the same molecule?
Its value is 9.4% and −0.5%.

What about the “% change of MS signal” value (kinases in BCWM.1 cells [15]) of the same molecule?
Its value is 3.6% and 9.7%.

What about the “% change of MS signal” value (kinases in BCWM.1 cells [16]) of the same molecule?
Its value is 92.9% and 95.7%.

What about the “% change of MS signal” value (kinases in BCWM.1 cells [17]) of the same molecule?
Its value is −2% and −3.8%.

What about the “% change of MS signal” value (kinases in BCWM.1 cells [18]) of the same molecule?
The value was −20.4% and −21.9%.

And the “% change of MS signal” value (kinases in BCWM.1 cells [19])?
Its value is 3.5% and 9%.

And the “% change of MS signal” value (kinases in BCWM.1 cells [20])?
Its value is greater than 98%.

What about the “% change of MS signal” value (kinases in BCWM.1 cells [21]) of the same molecule?
The value was −1.5% and −0.6%.

And the “% change of MS signal” value (kinases in BCWM.1 cells [22])?
Its value is −11.2% and −8.7%.

What about the “% change of MS signal” value (kinases in BCWM.1 cells [23]) of the same molecule?
The value was −18.9% and −27.8%.

What about the “% change of MS signal” value (kinases in BCWM.1 cells [24]) of the same molecule?
The value was −11.3% and −5.5%.

What about the “% change of MS signal” value (kinases in BCWM.1 cells [25]) of the same molecule?
The value was −0.6% and 1.5%.

For `CCC(=O)N1CC[C@H](Nc2nccc(Nc3ncc(C(=O)Nc4c(C)cccc4C)s3)n2)C1` [Example I-9], which “% change of MS signal” value (kinases in BCWM.1 cells [26]) is on record?
Its value is −8.6%.

What about the “% change of MS signal” value (kinases in BCWM.1 cells [27]) of the same molecule?
The value was −9.8%.

And the “% change of MS signal” value (kinases in BCWM.1 cells [28])?
Its value is 7.2%.

What about the “% change of MS signal” value (kinases in BCWM.1 cells [29]) of the same molecule?
The value was 9.1%.
